Non-standard residues stand in square brackets, D forms with d. Residues, ends and D or L forms follow the SMILES beside them. *: point of attachment. Dolaproine = CO[C@@H]([C@@H]1CCCN1)[C@@H](C)C(=O)O; Dil = CC[C@H](C)[C@H](NC)[C@@H](CC(=O)O)OC; X1 = C[C@@H](N*)[C@@H](O)c1ccccc1; NMeV = CN[C@H](C(=O)O)C(C)C
Tests used:
Type in all cases: cell-based
MCF7 cells = assay: HMGB1 release from MCF7 cells
Protocol: Induction of ICD is also characterized by the secretion of ATP and HMGB1. Extracellular ATP serves as a strong chemotactic signal, promoting immune cell migration to the tumor site. Upon arrival, extracellular HMGB1 signals through various pro-inflammatory receptors (TLR2, TLR4, RAGE) to activate antigen-presenting cells, thereby promoting immune activity within the tumor.
MCF7 cells were treated with MMAE or an MMAE-containing ADC (SGN-LIV1A) for 16 hours and harvested in […] for western bot analysis. […] Induction of ICD is also characterized by the secretion of ATP and HMGB1. Extracellular ATP serves as a strong chemotactic signal, promoting immune cell migration to the tumor site. Upon arrival, extracellular HMGB1 signals through various pro-inflammatory receptors (TLR2, TLR4, RAGE) to activate antigen-presenting cells, thereby promoting immune activity within the tumor.

[1] = system: A2058, SK-MEL-5, SK-MEL-28, Calu-1, HT-1080, SK-MES-1 and BXPC3 cells; assay: ATP secretion in a panel of solid tumor cell lines; settings: 7 cell lines, supernatant after 17 hours
Protocol: Skin tumor lines A2058, SK-MEL-5 and SK-MEL-28, Calu-1 (lung), HT-1080 (fibrosarcoma), SK-MES-1 (lung), and BXPC3 (pancreas) cells were treated with MMAE, vincristine, and Paclitaxel. Supernatant was collected after 17 hours of treatment, and analyzed for ATP secretion.

[2] = system: Calu-1, HT1080 and SK-MES-1 cells co-cultured with macrophages; assay: Macrophage costimulation/antigen presentation after co-culture with treated Calu-1, HT1080 and SK-MES-1 cells; settings: normalized to untreated
Protocol: Additional cell lines [Calu-1 (lung), HT1080 (fibrosarcoma) and SK-MES-1 […]] were tested for levels of antigen presentation after co culture with macrophages as above. Levels of costimulation (as measured by frequency of CD86-expressing macrophages, Calu-1) or antigen-presentation (as measured by frequency of MHCII-expressing macrophages, HT1080 and SK-MES-1) were quantified and normalized to macrophages that were co-cultured with untreated tumor cells. […] Calu-1, HT-1080, and SK-MES-1 cells were treated with an MMAE-containing ADC (anti-p97-MMAE), vincristine, or paclitaxel for 24 hours and analyzed for HMGB1 release by ELISA.

MDA-MB-468 cells = assay: ATP secretion from MDA-MB-468 cells; settings: supernatant after 48 hours
Protocol: MDA-MB-468 cells were treated with MMAE or an MMAE-containing ADC (ASG-22ME). Supernatant was collected after 48 hours of treatment, and analyzed for ATP secretion.

[3] = system: U-266 multiple myeloma cells; assay: Western blot analysis of ER stress in U-266 cells; settings: MMAE 492 nM, SGN-CD48A 10 ng/ml, 24 and 48 hours
Protocol: U-266 multiple myeloma cells were treated with free MMAE (492 nM), an MMAE-containing ADC (SGN-CD48A, 10 ng/ml), and a non-binding MMAE-ADO (10 ng/ml) for 24 and 48 hours. Cells were harvested at each time point and whole cell lysates were prepared. Lysates for each sample were run on an SDS-Page and transferred onto a nitrocellulose membrane. Western blot analysis was performed using phospho-JNK Thr183/Tyr185 (pJNK), PARR, ATF4, […], phospho-IRE-1 Ser274 (pIRE-1). β-actin serves as a loading control. […] Importantly, the induction of ER stress by MMAE in U-266 cells was sufficient to elicit markers of ICD.

## CC[C@H](C)[C@@H]([C@@H](CC(=O)N1CCC[C@H]1[C@H](OC)[C@@H](C)C(=O)N[C@H](C)[C@@H](O)c1ccccc1)OC)N(C)C(=O)[C@@H](NC(=O)[C@@H](NC)C(C)C)C(C)C [MMAE, monomethyl auristatin E] (H-[NMeV]V[Dil][Dolaproine]-X1)
MCF7 cells
  Secretion of HMGB1: increased secretion
[1]
  ATP secretion (cell lines responding): ATP secretion in most of the cell lines assayed (6/7)
  ATP secretion response compared with Paclitaxel: more robust response than Paclitaxel in all cell lines assayed
[2]
  Immune activation (CD86-expressing macrophages, Calu-1; MHCII-expressing macrophages, HT1080 and SK-MES-1): increase in immune activation in 3/3 tumor cell lines that was more robust than treatment with Paclitaxel
MDA-MB-468 cells
  ATP secretion: robust ATP secretion that was comparable to thapsigargin
[3]
  ER stress response (ATF4 expression, phosphorylation of JNK): further increased the ER stress response

Source: patent US20230110128A1, “USE OF ANTIBODY DRUG CONJUGATES COMPRISING TUBULIN DISRUPTING AGENTS TO TREAT SOLID TUMOR” (Seagen Inc., priority 2018, published 2023)
